Data taken from publication PMC9785777, “Antidiabetic Potential of Novel 1,3,5-Trisubstituted-2-Thioxoimidazloidin-4-One Analogues: Insights into α-Glucosidase, α-Amylase, and Antioxidant Activities” (Pharmaceuticals, 2022).
Values joined by “and” are separate entries in the source; they are usually repeats but may differ in a detail not shown here. Equal values may be shown once.

Key:
[1] = biological target: T1, α-glucosidase enzyme (EC3.2.1.20) (Saccharomyces cerevisiae, UniProt P53341); assay: biochemical; details: for inhibition at 1 µg/mL / inhibition at 10 µg/mL / inhibition at 100 µg/mL / inhibition at 1000 µg/mL: read-out: % inhibition of α-glucosidase
T1 construct: purchased Sigma-Aldrich
Excerpt: The α-glucosidase enzyme is mainly expressed in the small intestine and catalyzes the breakdown of carbohydrates into glucose units by cleaving the glucosidic bonds. α-Glucosidase blockers are the first-line drugs for the treatment of non-insulin-dependent DM by suppressing carbohydrate hydrolysis and consequently retarding glucose absorption into the bloodstream and reducing postprandial hyperglycemia. α-Glucosidase is, thus, considered to be an attractive pharmaceutical target for the treatment of […] via control of the blood glucose levels. Accordingly, there is a continuous need to develop a potential class of α-glucosidase inhibitors. Toward this aim, we explored the potency of the synthesized compounds to inhibit the activity of α-glucosidase. We examined the inhibitory activity of the synthesized compounds following the reported assay by Peytam et al.. Thus, the compounds at different concentrations (1000, 100, 10, and 1 µg/mL) were incubated with α-glucosidase and subsequently […] was added and the absorbance was monitored at 405 nm. […] To further investigate the structural aspects of 1,3-thiohydantoin scaffold, a substitution at the N1-position with the methyl-proponate group was performed. […] Nevertheless, it has adverse gastrointestinal effects including diarrhea and flatulence. Thus, the discovery of a novel class of potent antidiabetic agents is urgently demanded.
An ELISA reader was used to assess the inhibition of α-glucosidase by 1,3,5-trisubstituted-2-thioxoimidazolidin-4-ones derivatives at various doses (1000, 100, 10, and 1 µg/mL) according to Peytam et al.. […] Then, the substrate (25 µL, 4 mM) was added to the mentioned mixture and allowed to incubate at 37 °C for 20 min. Finally, the change in absorbance at 405 nm was monitored using a Cytation 3 hybrid microplate reader (BioTek, Winooski, VT, USA). […] GraphPad prism 6.0 was used to calculate the IC50 values of the investigated compounds from the nonlinear regression curve (Systat Software, Inc. Tools for Science) (https://www.graphpad.com/scientific-software/prism/ (accessed on 1 September 2022)).

[2] = DPPH free radical scavenging assay; details: for DPPH free radical scavenging IC50: n = 4
Excerpt: The antioxidant capability of compounds 5a and 7a was estimated utilizing the DPPH (2,2-diphenyl-1- picrylhydrazyl) scavenging assay to assess the free radical scavenger activity. DPPH is a stable free radical substrate with a purple color which upon reaction with an antioxidant compound, converts into 1,1-diphenyl-2-picryl hydrazine, a […] compound. The DPPH assay is widely applied for the investigation of superoxide radical scavenging activity. In this regard, compounds 5a and 7a were incubated at different concentrations (3.12, 6.25, 12.5, 25, 50, 100, and 200 µg/mL) with DPPH substrate and the absorption was assessed by ELISA at 510 nm. In our investigations, Trolox, a water-soluble analogue of vitamin E, was applied as a standard antioxidant reference drug. […] Further, Qamar et al. synthesized and evaluated the antioxidant activity of some novel N3-substituted-2-thiohydantoins.
According to Valko et al., the ELISA approach was used to analyze the free-radical DPPH scavenging activity of compounds (5a and 7a) at different concentrations (3.12, 6.25, 12.5, 25, 50, 100, and 200 µg/mL). The DPPH assay assesses the hydrogen-donating activity and thus provides an evaluation of the antioxidant activity via estimating the DPPH free-radical scavenging activity. The color intensity of the reaction mixture was measured after a purple-colored stable free radical (DPPH) was reduced into the yellow-colored diphenylpicryl hydrazinem. Briefly, 200 µL of different concentrations of compounds 5a and 7a were mixed with 50 µL of DPPH (0.659 mM) solution, and the mixture was incubated at 25 °C for 20 min. The absorbance of the reaction mixture was estimated after incubation at 510 nm. In our investigations, trolox was employed as standard reference drug. A control reaction was performed, and the inhibitory efficiency of DPPH radical-scavenging activity was determined using the equation below: % Inhibition = (A0 − A1)/A0 × 100 (1) where A0 is absorbance of […] and A1 is the absorbance of the compound.

[3] = ROS-generation assay (H2O2 generated with DTT, HRP-phenol red, 610 nm); details: 50 µM compound, incubated with DTT; control 90.74±5.54
Excerpt: The […] metabolites and enzymes (such as NADPH oxidase, lipoxygenase, and cytochrome P450) act together to mediate the production of ROS and diminish the counteractive oxidative damage. ROS can cause damage to DNA, lipid, proteins, and nucleic acids and the destruction of cell components leading to cell death. Toward this end, we aimed to investigate whether the mode of action of this class of compounds involved the generation of ROS. ROS-producing compounds upon reaction with a reducing agent in the presence of oxygen afford superoxide O^•−2 radical and hydrogen peroxide (H2O2) which could be quantitively estimated. Thus, compounds 5a and 7a (at 50 µM concentration) were incubated with the reducing agent dithiothreitol (DTT) and the generated H2O2 was subsequently assessed by monitoring the oxidation of phenol red in the presence of horseradish peroxidase (HRP) at the absorbance of 610 nm. We first examined the validity of the assay by examining the activity of a known ROS-producing standard drug. In our study, Celecoxib was utilized as a reference pharmacological ROS-generating drug. […] Next, we evaluated the potency of compounds 5a and 7a to produce ROS at a 50 µM concentration.
According to Nasiri et al., the antioxidant activity of compounds (5a, 7a) and Celecoxib was measured by an evaluation of ROS-generation using ELISA analysis. Three different solutions were prepared for the in vitro assessment of ROS-generation: phenol red, sodium hydroxide solution, and DTT. All reagents were provided by Sigma-Aldrich. A stock solution of DTT (20 mM) was prepared by dissolving […] of DTT in 500 µL of Hank’s Balanced Salt Solution (HBSS), and the obtained solution was preserved at −20 °C. The stock solution was further diluted with HBSS to 0.8 mM for each measurement. The HRP-PR solution was prepared by dissolving 1.8 mg of horseradish peroxidase (HRP) and 3 mg of phenol red (PR) in 10 mL of HBSS. […] After incubation, 1N NaOH was applied, and the absorbance at 610 nm was measured using a plate reader spectrometer. […]

T1 sequence (P53341 whole entry): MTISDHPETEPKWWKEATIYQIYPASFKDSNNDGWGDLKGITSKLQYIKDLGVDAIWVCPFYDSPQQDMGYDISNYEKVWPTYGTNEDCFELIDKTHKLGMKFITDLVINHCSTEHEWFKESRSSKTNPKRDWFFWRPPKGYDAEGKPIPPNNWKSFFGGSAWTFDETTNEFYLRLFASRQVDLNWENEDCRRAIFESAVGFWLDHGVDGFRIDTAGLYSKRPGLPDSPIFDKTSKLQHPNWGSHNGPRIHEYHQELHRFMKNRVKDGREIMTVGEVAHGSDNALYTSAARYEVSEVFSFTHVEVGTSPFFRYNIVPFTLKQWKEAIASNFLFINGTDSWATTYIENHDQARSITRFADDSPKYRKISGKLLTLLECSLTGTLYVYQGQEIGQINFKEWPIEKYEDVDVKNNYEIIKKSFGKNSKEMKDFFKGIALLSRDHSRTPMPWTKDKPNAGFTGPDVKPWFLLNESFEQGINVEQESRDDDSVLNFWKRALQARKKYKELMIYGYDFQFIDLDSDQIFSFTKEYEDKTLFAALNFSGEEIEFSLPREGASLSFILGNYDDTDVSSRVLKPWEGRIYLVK

| SMILES | IC50 [1] | inhibition at 1 µg/mL [1] | inhibition at 10 µg/mL [1] | inhibition at 100 µg/mL [1] | inhibition at 1000 µg/mL [1] | %RSA (DPPH radical scavenging activity) ([2]; 3.12 µg/mL) | %RSA (DPPH radical scavenging activity) ([2]; 6.25 µg/mL) | %RSA (DPPH radical scavenging activity) ([2]; 12.5 µg/mL) | %RSA (DPPH radical scavenging activity) ([2]; 25 µg/mL) | %RSA (DPPH radical scavenging activity) ([2]; 50 µg/mL) | %RSA (DPPH radical scavenging activity) ([2]; 100 µg/mL) | %RSA (DPPH radical scavenging activity) ([2]; 200 µg/mL) | DPPH free radical scavenging IC50 [2] | ROS produced (generated H2O2) [3] |
| --- | --- | --- | --- | --- | --- | --- | --- | --- | --- | --- | --- | --- | --- | --- |
| COC(=O)CCN1C(=S)N(N=C(C)c2ccccc2O)C(=O)C1=Cc1ccccc1O [Compound 5a, Methyl [5-(2-hydroxybenzylidene)-4-oxo-3-(2-hydroxyphenylethylidene)amino-2-thioxoimidazolidin-1-yl] propionate] | 11.6 µM | 35% | 58% | 75% | 86% | 12.8385% | 25.9268% | 34.2% | 49.2589% | 65.3256% | 84.0278% | 90.9673% | 51.75 µg/mL | 132.4 pg/mL and 132.4 ± 2.16 pg/mL |
| COC(=O)CCN1C(=S)N(N=C(C)c2ccccc2O)C(=O)C1=Cc1ccccc1OC(C)=O [Compound 7a, Methyl [5-(2-acetoxybenzylidene)-4-oxo-3-(2-hydroxyphenylethylidene)amino-2-thioxoimidazolidin-1-yl] propionate] | 38.2 µM | 21.8% | 48.3% | 66.1% | 82.6% | 9.7382% | 18.9636% | 30.2839% | 45.4635% | 62.2992% | 81.6087% | 80.732% | 65.5 µg/mL | 191.5 pg/mL and 191.5 ± 3.62 pg/mL |
